Data reported in patent publication US9770438B2, “Clonidine formulation in a polyorthoester carrier” (Medtronic, Inc., priority 2008, dated 2017).

Legend:
[1] = test system: Rat Chronic Constriction Injury Model (Bennett Model) of neuropathic pain; settings: subcutaneously 0.02 mg/kg/day; compared to unloaded polyorthoester depot (POE Control); days 7-63; FIG. 3
From the text: (§1) A 2-month chronic constriction injury (CCI) model of neuropathic pain was used to evaluate a formulation of clonidine encapsulated in a POE polymer, a POE control polymer and clonidine given subcutaneously (SC).
(§2) The inventors evaluated the efficacy of a five month Clonidine/Polyorthoester Drug Depot in the Rat Chronic Constriction Injury Model. The animal model was the Bennett Model (Wistar rat). The purpose: to determine whether a five month polyorthoester clonidine-eluting depot can improve pain associated behavioral responses in a rat model of neuropathic pain.
(§3) Experimental Design: Four loose chromic gut ligatures, 1 mm apart, were tied around the common sciatic nerve at mid-thigh. Each animal received treatment of test or a controlled article according to the dosing described in Table 2.
(§4) The inventors have conducted the present study for a period of 64 days and have employed the following two tests: (1) the Hargreaves test; and (2) the von Frey test. The Hargreaves Tests of Thermal Hyperalgesia were conducted on days 7, 14, 21, 28, 35, 42, 49, 56 and 63. The von Frey monofilament test of mechanical allodynia (performed the day following thermal testing) were conducted on days 8, 15, 22, 29, 36, 43, 50, 57 and 64.

[2] = test system: Rat Chronic Constriction Injury Model (Bennett Model) of neuropathic pain; settings: subcutaneously 0.02 mg/kg/day; compared to unloaded polyorthoester depot (POE Control); days 8-64; FIG. 4
From the text: as §1, §2, §3, §4

SMILES: Clc1cccc(Cl)c1N=C1NCCN1 [clonidine, 2,6-dichloro-N-2-imidazolidinyldenebenzenamine]
- pain behavioral response (percentage of baseline) for thermal hyperalgesia [1]: consistently reduced the behavioral response
- pain behavioral response (percentage of baseline) for mechanical allodynia [2]: reduced the behavioral response
